Assay results taken from the supplement of paper PMC10307832.

What was measured:
Assay in all cases: relative viability (nuclei count vs DMSO), 5 days (fraction); higher = more cells survive
[1] = tested on: IA-LM
In short: (§1)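 Lung cancer cell lines in 1536-well plates got either a single drug or a fixed anchor-drug dose together with five library-drug doses (not always all listed) in √10 steps, by pin tool, on the day after seeding. Nuclei were counted after 5 days, and relative viability is the treated-to-vehicle ratio of nuclei counts. Values are medians of duplicate plates.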

[2] = tested on: NCI-H1975
In short: as §1

[3] = tested on: SK-MES-1
In short: as §1

[4] = tested on: NCI-H520
In short: as §1

[5] = tested on: NCI-H2009
In short: as §1

[6] = tested on: COR-L 105
In short: as §1

[7] = tested on: NCI-H1650
In short: as §1

[8] = tested on: COR-L23
In short: as §1

[9] = tested on: EPLC-272H
In short: as §1

[10] = tested on: LK-2
In short: as §1

[11] = tested on: NCI-H2347
In short: as §1

[12] = tested on: A549
In short: as §1

[13] = tested on: HCC-44
In short: as §1

[14] = tested on: NCI-H647
In short: as §1

[15] = tested on: NCI-H1299
In short: as §1

[16] = tested on: HCC-78
In short: as §1

[17] = tested on: NCI-H358
In short: as §1

[18] = tested on: NCI-H460
In short: as §1

[19] = tested on: A-427
In short: as §1

[20] = tested on: NCI-H1792
In short: as §1

[21] = tested on: EKVX
In short: as §1

[22] = tested on: HCC-366
In short: as §1

[23] = tested on: NCI-H1437
In short: as §1

`Cc1cn(-c2cc(NC(=O)c3ccc(C)c(Nc4nccc(-c5cccnc5)n4)c3)cc(C(F)(F)F)c2)cn1` [Nilotinib] + CS(=O)(=O)CCNCc1ccc(-c2ccc3ncnc(Nc4ccc(OCc5cccc(F)c5)c(Cl)c4)c3c2)o1 [Lapatinib] (partner 2 µM) gave a relative viability ([1]; first compound 0.003162 µM) of 0.936, a relative viability ([1]; first compound 0.01 µM) of 0.755 and a relative viability ([1]; first compound 0.03162 µM) of 0.459. It also gave a relative viability ([1]; first compound 0.1 µM) of 0.794, a relative viability ([2]; first compound 0.001 µM) of 0.859 and a relative viability ([2]; first compound 0.003162 µM) of 1.18. For the same compound, the relative viability ([2]; first compound 0.01 µM) was 0.894, the relative viability ([2]; first compound 0.03162 µM) was 0.658 and the relative viability ([2]; first compound 0.1 µM) was 0.433. It also gave a relative viability ([3]; first compound 0.003162 µM) of 0.663, a relative viability ([3]; first compound 0.01 µM) of 0.665 and a relative viability ([3]; first compound 0.03162 µM) of 0.541. The relative viability ([3]; first compound 0.1 µM) was 0.557, the relative viability ([4]; first compound 0.001 µM) was 0.678 and the relative viability ([4]; first compound 0.01 µM) was 0.927. It also gave a relative viability ([4]; first compound 0.03162 µM) of 0.707, a relative viability ([4]; first compound 0.1 µM) of 0.383 and a relative viability ([5]; first compound 0.001 µM) of 0.788. For the same compound, the relative viability ([5]; first compound 0.003162 µM) was 1.1, the relative viability ([5]; first compound 0.01 µM) was 1.08 and the relative viability ([5]; first compound 0.03162 µM) was 1.01. The relative viability ([5]; first compound 0.1 µM) was 0.191, the relative viability ([6]; first compound 0.001 µM) was 0.418 and the relative viability ([6]; first compound 0.01 µM) was 0.375. It also gave a relative viability ([6]; first compound 0.03162 µM) of 0.352, a relative viability ([6]; first compound 0.1 µM) of 0.286 and a relative viability ([7]; first compound 0.001 µM) of 0.851. The relative viability ([7]; first compound 0.003162 µM) was 0.931, the relative viability ([7]; first compound 0.01 µM) was 0.917 and the relative viability ([7]; first compound 0.03162 µM) was 0.668. For the same compound, the relative viability ([7]; first compound 0.1 µM) was 0.424, the relative viability ([8]; first compound 0.001 µM) was 0.834 and the relative viability ([8]; first compound 0.003162 µM) was 1.53. It also gave a relative viability ([8]; first compound 0.01 µM) of 1.7, a relative viability ([8]; first compound 0.03162 µM) of 0.822 and a relative viability ([8]; first compound 0.1 µM) of 0.825. For the same compound, the relative viability ([9]; first compound 0.001 µM) was 0.877, the relative viability ([9]; first compound 0.003162 µM) was 1.23 and the relative viability ([9]; first compound 0.01 µM) was 0.775. The relative viability ([9]; first compound 0.03162 µM) was 0.976, the relative viability ([9]; first compound 0.1 µM) was 0.402 and the relative viability ([10]; first compound 0.001 µM) was 0.854. The relative viability ([10]; first compound 0.003162 µM) was 0.754, the relative viability ([10]; first compound 0.01 µM) was 1.05 and the relative viability ([10]; first compound 0.03162 µM) was 0.875. It also gave a relative viability ([10]; first compound 0.1 µM) of 0.822, a relative viability ([11]; first compound 0.001 µM) of 0.821 and a relative viability ([11]; first compound 0.003162 µM) of 1.01. The relative viability ([11]; first compound 0.01 µM) was 0.823, the relative viability ([11]; first compound 0.03162 µM) was 0.817 and the relative viability ([11]; first compound 0.1 µM) was 0.6. It also gave a relative viability ([12]; first compound 0.001 µM) of 1.01, a relative viability ([12]; first compound 0.003162 µM) of 1.07 and a relative viability ([12]; first compound 0.01 µM) of 1.09. It also gave a relative viability ([12]; first compound 0.03162 µM) of 0.881, a relative viability ([12]; first compound 0.1 µM) of 0.672 and a relative viability ([13]; first compound 0.001 µM) of 0.994. It also gave a relative viability ([13]; first compound 0.003162 µM) of 1.09, a relative viability ([13]; first compound 0.01 µM) of 0.822 and a relative viability ([13]; first compound 0.03162 µM) of 0.966. For the same compound, the relative viability ([13]; first compound 0.1 µM) was 0.869, the relative viability ([14]; first compound 0.001 µM) was 0.978 and the relative viability ([14]; first compound 0.003162 µM) was 1.42. For the same compound, the relative viability ([14]; first compound 0.03162 µM) was 0.672, the relative viability ([14]; first compound 0.1 µM) was 0.723 and the relative viability ([15]; first compound 0.001 µM) was 0.967. For the same compound, the relative viability ([15]; first compound 0.003162 µM) was 0.974, the relative viability ([15]; first compound 0.01 µM) was 0.992 and the relative viability ([15]; first compound 0.03162 µM) was 1.05. The relative viability ([15]; first compound 0.1 µM) was 0.98, the relative viability ([16]; first compound 0.001 µM) was 0.889 and the relative viability ([16]; first compound 0.003162 µM) was 0.718. The relative viability ([16]; first compound 0.01 µM) was 0.779, the relative viability ([16]; first compound 0.03162 µM) was 0.491 and the relative viability ([16]; first compound 0.1 µM) was 0.571. It also gave a relative viability ([17]; first compound 0.001 µM) of 0.442, a relative viability ([17]; first compound 0.003162 µM) of 0.529 and a relative viability ([17]; first compound 0.01 µM) of 0.539. The relative viability ([17]; first compound 0.03162 µM) was 0.438, the relative viability ([17]; first compound 0.1 µM) was 0.325 and the relative viability ([18]; first compound 0.001 µM) was 0.521. The relative viability ([18]; first compound 0.03162 µM) was 0.378, the relative viability ([18]; first compound 0.1 µM) was 0.0571 and the relative viability ([19]; first compound 0.001 µM) was 1.05. It also gave a relative viability ([19]; first compound 0.01 µM) of 1.13, a relative viability ([19]; first compound 0.03162 µM) of 1.08 and a relative viability ([19]; first compound 0.1 µM) of 0.211. For the same compound, the relative viability ([20]; first compound 0.001 µM) was 0.899, the relative viability ([20]; first compound 0.01 µM) was 1.12 and the relative viability ([20]; first compound 0.1 µM) was 1.24. For the same compound, the relative viability ([21]; first compound 0.001 µM) was 0.211, the relative viability ([21]; first compound 0.003162 µM) was 0.195 and the relative viability ([21]; first compound 0.01 µM) was 0.214. For the same compound, the relative viability ([21]; first compound 0.03162 µM) was 0.187, the relative viability ([21]; first compound 0.1 µM) was 0.204 and the relative viability ([22]; first compound 0.001 µM) was 0.907. It also gave a relative viability ([22]; first compound 0.003162 µM) of 1.38, a relative viability ([22]; first compound 0.01 µM) of 1.29 and a relative viability ([22]; first compound 0.03162 µM) of 0.984. It also gave a relative viability ([22]; first compound 0.1 µM) of 0.191, a relative viability ([23]; first compound 0.001 µM) of 0.687 and a relative viability ([23]; first compound 0.003162 µM) of 0.973. The relative viability ([23]; first compound 0.01 µM) was 0.858, the relative viability ([23]; first compound 0.03162 µM) was 0.614 and the relative viability ([23]; first compound 0.1 µM) was 0.203.
